Experimental findings from a melting point compilation (Tetko et al.; mined from patent text by program, amines drawn as free bases though some values may be those of a salt) are described below.

Structures are written as SMILES.

Usually melting point stands for the temperature, or range, at which the solid turns liquid. Turning to `C=CCS(=O)c1c(O)cc(C)oc1=O` (stereo unspecified), the melting point was 111 to 112 °C.

The compound `N#CC(NC(=O)c1cccn2cc(-c3ccccc3)nc12)c1ccco1` (stereo unspecified) showed a melting point of 197 to 199 °C.

Consider `COc1ccc(C(=O)NC(=O)Nc2cccc3c2CC(=O)N3)cc1`, for which the melting point was 276 to 279 °C.

`CCOC(=O)C(=O)Nc1ccc(Br)cc1[N+](=O)[O-]` yielded a melting point of 168 to 169 °C.

For `C/C=C/CNC(=O)N1CC(Oc2cccc(C(F)(F)F)c2)C1`, the melting point lay within 127 to 128 °C.

In turn, `Nc1nc2ccccc2n1CCCN1CCN(C(c2ccccc2)c2ccccc2)CC1` displayed a melting point of 229 °C.

On to `CCOC(C)(C)C(=O)O[C@H]1C[C@H](O)C=C2C=C[C@H](C)[C@H](CC[C@@H]3C[C@@H](O)CC(=O)O3)[C@H]21`, for which the melting point worked out at 132 °C.

Compound `CCOCc1nc2c(N)nc3ccc(OCc4ccccc4)cc3c2n1CC(C)C` had a melting point of 183 to 184 °C.

Compound `O=C(NC(=O)N1C(=O)Cc2ccccc21)C1CCCCC1` registered a melting point of 144 to 146 °C.

In turn, `CCCc1c(OCCCSc2nnc(NC(=O)CC(=O)O)s2)ccc(C(C)=O)c1O` had a melting point of 172 to 174 °C.

`CCC(=O)N1N=C(c2ccc(N)cc2)c2cc(Cl)ccc2CC1C` (stereo unspecified): the melting point was 118 to 120 °C.

On to `CC(C)C(=O)NCc1ccc(NC(=O)/C=C/c2cnn(C)c2-c2ccc(F)cc2)cc1`, for which the melting point lay within 258 to 259 °C.

Compound `CCOC(=O)c1cn2c(cc(Cl)c3ccc(Br)cc32)n1` showed a melting point of 206 to 207 °C.

`CCCn1cc2c(n1)c(N)nc1ccccc12` came in with a melting point of 225 to 227 °C.

On to `ON=Cc1ccc(OCc2coc(-c3ccc(C(F)(F)F)cc3)n2)cc1`, for which the melting point lay in the range of 155 to 160 °C.

On to `CC(C)c1nn(-c2ccc(C(F)(F)F)cn2)cc1CCCOc1nn(C2CCCCC2)cc1CC(=O)O`, for which the melting point was in the range of 116 to 117 °C.

For the compound `CCN1CCC2(c3cccc(O)c3)Cc3[nH]c(C(=O)Nc4ccccc4)c(C)c3CC2C1` (stereo unspecified), the melting point lay within 271 to 272 °C.

Take `CCSc1c(O[C@@H]2CCC[C@H](N)C2)ccc2[nH]ncc12` (relative stereo): the melting point was found to be 110 °C.

`Fc1cccc(-c2ccc(Cl)nn2)c1` returned a melting point of 133 to 135 °C.

As to `CC(C)(C)OC(=O)N1CCC(NC(=O)c2ccc(-n3ncc4ccccc43)cc2)CC1`, the melting point lay within 165 to 166 °C.

`CCOC(=O)[C@@H](N)Cc1ccc([N+](=O)[O-])cc1I` registered a melting point of 33 to 34 °C.

Consider `O=C(O)c1cc(Oc2ccc(Cl)cc2Cl)c(O)cc1Cl`, for which the melting point lay in the range of 192 to 196 °C.

With `CC(=O)Nc1c(C#N)cnn1-c1ccc(C)cc1Cl`, the melting point is 146 to 147 °C.

Compound `COc1c(C=Cc2ccc(C=CC3=C(C#N)C(=C(C#N)C#N)OC3(C)C)s2)cc2c3c1CCCN3CCC2` returned a melting point of 201 to 204 °C.

Compound `COC(=O)Cc1csc2c(O)cccc12` registered a melting point of 147 to 148 °C.

On to `Cc1c(C(=O)Nc2ccc(OCCN3CCOCC3)c(C#N)c2)cnn1-c1ccc(Cl)cc1`, for which the melting point was 187 to 189 °C.

With `CC(Cc1c[nH]c2ccccc12)(NC(=O)OC1C2CC3CC(C2)CC1C3)C(=O)NCC(NC=O)c1ccccc1` (stereo unspecified), the melting point was in the range of 102 to 118 °C.

`N#CCC(C#N)=CNc1c(Cl)cc(C(F)(F)F)cc1Cl` had a melting point of 122 °C.

The compound `O=C1c2ccccc2C(=O)N1OCCCN1CCN(c2ccc3ccccc3n2)CC1` came in with a melting point of 158 to 160 °C.

`C[C@@H](Nc1ncnc2[nH]c(-c3ccc(CCl)cc3)cc12)c1ccccc1`: the melting point was above 320 °C.

In turn, `CCCCc1nc2c(N)nc3cc(/C=C/c4ccccc4)ccc3c2n1CC(C)C` yielded a melting point of 215 to 216 °C.

Consider `COC(=O)c1ccc(C(=O)NS(=O)(=O)c2ccc(CCNC(=O)COc3ccccc3)cc2)cn1`, for which the melting point is 201 to 203 °C.

As to `CCS(=O)(=O)Nc1cc(-c2ncnc(C(F)(F)F)c2Cl)c(F)cc1C#N`, the melting point fell in the range of 191 to 194 °C.

`COc1ccc(-n2c(-c3sc(Nc4ccccc4)nc3C)nc3ccccc3c2=O)cc1`: the melting point was 265 to 266 °C.

In the case of `COc1cc(NC(=O)c2csc(NC(=O)NCc3ccccc3)n2)ccc1OCC(=O)O`, the melting point came out at 210 °C.

`CN(C(CCn1c(=O)cc(C(F)(F)F)[nH]c1=O)C(=O)NO)S(=O)(=O)c1ccc(Oc2cccc(F)c2)cc1` (stereo unspecified) came in with a melting point of 168 to 169 °C.

The compound `C/C(=C\c1ccc(C(F)(F)F)cc1)[C@H]1OC[C@H](SCc2ccc(Cl)cc2)CO1` gave a melting point of 93 to 95 °C.

In the case of `N#CC1=C(Cl)CN(COC(=O)CNC(=O)CNC(=O)c2ccccc2)C1(c1ccc(Cl)cc1)C(F)(F)F` (stereo unspecified), the melting point fell in the range of 65 to 67 °C.

`O=C(NCCO)/C(=C/c1ccc(OCC(F)F)cc1)NC(=O)c1ccc(OCCCC2CC2)cc1` gave a melting point of 149 to 151 °C.

In turn, `COc1ccc(CCNC(=O)C(F)(F)F)cc1S(=O)(=O)N=CN(C)C` returned a melting point of 143 to 144 °C.

Compound `CC(=O)NC(Cc1ccc([N+](=O)[O-])cc1)C(=O)O` (stereo unspecified) returned a melting point of 165 to 166 °C.

For `O=C(O)c1ccnc(-c2cccc3oc(Cc4cccc(C(F)(F)F)c4)cc23)c1`, the melting point fell in the range of 187 to 188 °C.

The compound `O=[N+]([O-])c1ccccc1SN(CCO)CCO` came in with a melting point of 82 to 86 °C.

Compound `O[C@@H]1CN(Cc2ccccc2)C[C@H]1Sc1ccccc1` (relative stereo) returned a melting point of 97 to 99 °C.

`COC(=O)c1cccc(C2=NC(C)(C)Cc3cc(OC)c4c(c32)CC(C)(C)O4)c1`: the melting point was 137 to 138 °C.

Consider `C=Cc1cc(C)cc(C)c1C1=C(O)C2(CCN(OC)CC2)NC1=O`, for which the melting point was 198 to 200 °C.

`CCOC(=O)C=Cc1cc(C=CS(=O)(=O)c2ccccc2)cc(Cc2cccnc2)c1` had a melting point of 118 to 120 °C.

`Nc1ccccc1C(=O)NCCc1cccnc1` registered a melting point of 126 to 128 °C.

Take `COC(=O)c1cc(C(=O)OC)c2c(Cl)cc(Cl)cc2n1`: the melting point is 116 to 118 °C.

The compound `Oc1ccc2c(ccn2Cc2ccncc2)c1` returned a melting point of 185 to 186 °C.

`CCc1nn(CCN)c(CC)c1Cc1cc(C#N)cc(C#N)c1` had a melting point of 100 to 105 °C.

In the case of `CCCCOC(=O)c1cc(=NS(=O)(=O)c2ccccc2)c2c(Cl)cc(Cl)cc2[nH]1`, the melting point is 94 to 95 °C.

For the compound `CCCNC(=O)N=c1ccn(-c2ccccc2)nc1`, the melting point is 156 to 157 °C.

With `O=C1CC(c2cccc(-n3ccnn3)c2)=Nc2ccc(-c3ccc(F)cc3)cc2N1`, the melting point fell in the range of 218 to 220 °C.

For the compound `CCOC(=O)CON(CC)C(=S)Nc1ccccc1C(C)C`, the melting point lay within 57 to 58 °C.

`CCCc1nn(C)c2c1N=C(c1cc(C(=O)O)ccc1OCC)NC2`: the melting point was in the range of 285 to 288 °C.

The compound `CCn1nc(OCCCc2ccc(OC(C)C)cc2OCc2ccc(C(F)(F)F)cc2)cc1CCC(=O)O` showed a melting point of 75 to 76 °C.

`O=C(O)c1ccc2c(c1)S(=O)(=O)c1ccccc1S2` showed a melting point of 297 to 304 °C.

Turning to `CN1Cc2cccnc2N(c2cccc(Cl)c2)C1=O`, the melting point lay in the range of 139 to 140 °C.

`N#CC1=C(c2ccccc2)Nc2n[nH]cc2C1c1ccccc1Cl` (stereo unspecified) displayed a melting point of 158 °C.

`O=C(C=Cc1ccccc1S(=O)(=O)Nc1ccccc1)NO`: the melting point fell in the range of 205 to 206 °C.

As for `CC(=CC1=NCCC1)N(C)C1CCCCC1`, the melting point was in the range of 152 to 153 °C.

Compound `CC(C)(C)OC(=O)NC(C)(C)c1ccc(C(=O)O)cc1` had a melting point of 205 to 208 °C.

In the case of `Cc1cccc(N2CCN(CCCCc3ccc(C4CCC(=O)N4)cc3)CC2)c1C` (stereo unspecified), the melting point is 112 to 114 °C.

For the compound `CC(C)NCC(O)(Cn1cncn1)c1ccc(Cl)cc1Cl` (stereo unspecified), the melting point lay in the range of 132 to 133 °C.

Compound `CCN(CC)C(=O)n1cc(Cl)c(S(=O)(=O)c2c(C)cc(C)cc2C)n1` came in with a melting point of 84 to 86 °C.

Take `O=C1C2=C(CCCC2)C(=O)N1c1ccc(Cl)c2c1CC(CO)O2` (stereo unspecified): the melting point was in the range of 193 to 195 °C.

The compound `Cn1cc(C(O)(c2ccc3c(cnn3C(=O)OC3CCC3)c2)C(F)(F)F)c2ccccc21` (stereo unspecified) displayed a melting point of 82 to 84 °C.

Turning to `C=C(C)C(=O)OC(C1CCCC1)C(O)(C(F)(F)F)C(F)(F)F` (stereo unspecified), the melting point was 59 °C.

`CCNc1cc(-c2c[nH]c(N)n2)ccn1` returned a melting point of 200 to 202 °C.

For the compound `Cc1ccccc1COCn1cc(Cl)cnc1=O`, the melting point stood at 88 °C.

Turning to `CCCCn1c(=O)c2c(Cl)cc(Cl)cc2n(Cc2ccccc2)c1=O`, the melting point was in the range of 101 to 109 °C.

In turn, `CN1CCC(n2nc(-c3c(-c4ccccc4)nn4ccccc34)ccc2=O)CC1` showed a melting point of 139 to 140 °C.

With `Cc1cccnc1-n1c(C)nc2ccccc2c1=O`, the melting point was 135 to 137 °C.

`OCc1csc(N2CCCCC2)n1`: the melting point was in the range of 89 to 90 °C.

Compound `O=C(CCCCC(=O)Oc1ccc(C(=O)OCc2ccccc2)cc1)Oc1ccc(C(=O)OCc2ccccc2)cc1` showed a melting point of 93 to 93.5 °C.

In turn, `c1nc(Nc2ccc3[nH]ccc3c2)c2sc(-c3ccc(CNCCN4CCOCC4)cc3)cc2n1` displayed a melting point of 100 to 111 °C.

Turning to `COc1nn(-c2ccc(C=O)c(Cl)c2)nc1Cl`, the melting point lay in the range of 85 to 87 °C.

Compound `COc1ccc(C(=O)Nc2ccc(CN3C(=O)[C@H]4CCC[C@H]4N(C(=O)CN4C(=O)c5ccccc5C4=O)c4ccccc43)cc2)cc1` (relative stereo) showed a melting point of 170 to 173 °C.

As to `CCc1nn(C2CCCC2)c2cc(C(=O)N(C)c3c(Cl)cncc3Cl)ccc12`, the melting point was 118 to 119 °C.

In turn, `O=P(CN(O)Cc1ccccc1)(OCc1ccccc1)OCc1ccccc1` yielded a melting point of 62 to 64 °C.

On to `CCOC(=O)c1cnc2c(-c3ccc(Cc4cccc(OC)c4)cc3)cnn2c1O`, for which the melting point lay in the range of 236 to 240 °C.

Consider `CC(C)(C)OC(=O)CNC(=O)OCC1c2c(c3ccccc3c3ccccc23)-c2c1c1ccccc1c1ccccc21`, for which the melting point lay in the range of 170 to 171 °C.

For `O=C(O)c1cn(C2CC2)c2nc(N3Cc4cccc(CO)c4C3)c(F)cc2c1=O`, the melting point is above 300 °C.

For the compound `Fc1ccc(C(F)(F)F)cc1Nc1nc2ccccc2o1`, the melting point lay within 164 to 165 °C.

Turning to `Nc1c2c(nc3ccccc13)CC(O)CC2O` (stereo unspecified), the melting point fell in the range of 158 to 162 °C.
